From paper PMC10272112 (Nature Communications, 2023)

Key:
Assay in all cases: Chemoproteomic competition pulldown assay with iC
Format in all cases: binding
MBLAC2 = molecular target: T1, MBLAC2 (Homo sapiens, UniProt Q68D91); conditions: for relative binding vs DMSO: iC
T1 construct: endogenous in cells; host or cells: cell lysate
T1 sequence (Q68D91 1-279): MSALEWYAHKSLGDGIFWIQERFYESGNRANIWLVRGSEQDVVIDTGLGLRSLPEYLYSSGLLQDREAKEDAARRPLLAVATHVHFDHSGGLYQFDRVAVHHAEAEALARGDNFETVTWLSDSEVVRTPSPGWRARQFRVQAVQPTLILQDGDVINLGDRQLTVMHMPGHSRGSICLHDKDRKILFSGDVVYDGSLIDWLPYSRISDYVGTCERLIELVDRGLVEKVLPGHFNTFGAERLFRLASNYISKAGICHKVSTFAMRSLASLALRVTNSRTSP
Procedure: (§1) To identify proteins directly bound by lipoic acid, we employed a chemoproteomic competition assay. Briefly, (R/S)-LA was immobilized on sepharose beads via an amidation reaction to form an affinity matrix (abbreviated as iL; Fig. 1a). This affinity matrix can be incubated with cell lysate to pull down potential LA or LM target proteins and identify these targets via bottom-up proteomics. In a competition assay, free LA or LM were incubated with lysate at different concentrations before pulling down and quantifying target proteins. […] (Fig. 1b, see “Methods” for details). […] The lysate buffer used in this assay contains 1 mM DTT to mimic the intracellular reductive milieu and to reduce lipoic acid and LM. […] Additional competition assays performed in lung adenocarcinoma cell A549 lysate also identified HDAC1, HDAC2, and HDAC6 as targets (Supplementary Fig. 1b). Amongst the three cell lines tested, HDACs were the only confidently identified targets across the 1500–3000 proteins quantified in these assays. […] We validated the results by analogous pulldown competition assays using two other affinity matrices prepared via the immobilization of either the HDAC inhibitor Quisinostat (iQ) and an analog of the class IIa HDAC inhibitor Bürli’s 31[14] (iC)[12]. We have previously shown that these affinity matrices specifically bind to the active sites of HDACs and have used them for HDACi selectivity profiling. Indeed, binding of (R/S)-LA and (R/S)-LM to HDAC1, HDAC2, HDAC3, HDAC6, and, to a lesser extent, HDAC8 was confirmed in these assays (Supplementary Fig. 1c, d). No binding to class IIa HDACs or the recently discovered common HDAC inhibitor off-target MBLAC2 was observed (Supplementary Fig. 1e)[12]. […] This observation might reflect electrostatic repulsion between the HDAC10 active site gate-keeper glutamic acid residues[15],[16] and the terminal carboxylic acid of LA.
(§2) To assess the degree of protein depletion from lysates by the affinity matrix, a second pulldown (PDPD) with fresh beads was performed using the unbound protein fraction from the vehicle control flow through. The beads were washed (1 × 1 mL of lysis buffer without inhibitors and only 0.4% Igepal, 2 × 2 mL of lysis buffer without inhibitors and only 0.2% Igepal), and captured proteins were denatured with 8 M urea buffer, alkylated with 55 mM chloroacetamide and digested with Trypsin according to standard procedures. The resulting peptides were desalted on a C18 filter plate (Sep-Pak® tC18 µElution Plate, Waters), vacuum dried, and stored at −20 °C until LC–MSMS measurement.
(§3) For the competition assays, relative binding was calculated based on the protein intensity ratio to the DMSO control for every single inhibitor concentration. EC50 values were derived from a four-parameter log-logistic regression with variable slope (constrain: bottom > 0). The obtained EC50 values were multiplied with a protein-dependent correction factor (cf), resulting in the apparent Kd value (Kd^app). The correction factor is determined by calculating the ratio of the protein intensity of two consecutive pulldowns of the vehicle control sample[13]. Targets of the inhibitors were annotated manually according to published procedures[12],[46],[47]. […] Additionally, the number of unique peptides and MSMS counts per condition were taken into account. Positive target binding across several independent experiments performed with different cell lysates further substantiated our confidence for a true positive drug-target binding event.

HDAC4 = molecular target: T2, HDAC4 (Homo sapiens, UniProt P56524); conditions: for relative binding vs DMSO: iC
T2 construct: endogenous in cells; host or cells: cell lysate
T2 sequence (P56524 whole entry): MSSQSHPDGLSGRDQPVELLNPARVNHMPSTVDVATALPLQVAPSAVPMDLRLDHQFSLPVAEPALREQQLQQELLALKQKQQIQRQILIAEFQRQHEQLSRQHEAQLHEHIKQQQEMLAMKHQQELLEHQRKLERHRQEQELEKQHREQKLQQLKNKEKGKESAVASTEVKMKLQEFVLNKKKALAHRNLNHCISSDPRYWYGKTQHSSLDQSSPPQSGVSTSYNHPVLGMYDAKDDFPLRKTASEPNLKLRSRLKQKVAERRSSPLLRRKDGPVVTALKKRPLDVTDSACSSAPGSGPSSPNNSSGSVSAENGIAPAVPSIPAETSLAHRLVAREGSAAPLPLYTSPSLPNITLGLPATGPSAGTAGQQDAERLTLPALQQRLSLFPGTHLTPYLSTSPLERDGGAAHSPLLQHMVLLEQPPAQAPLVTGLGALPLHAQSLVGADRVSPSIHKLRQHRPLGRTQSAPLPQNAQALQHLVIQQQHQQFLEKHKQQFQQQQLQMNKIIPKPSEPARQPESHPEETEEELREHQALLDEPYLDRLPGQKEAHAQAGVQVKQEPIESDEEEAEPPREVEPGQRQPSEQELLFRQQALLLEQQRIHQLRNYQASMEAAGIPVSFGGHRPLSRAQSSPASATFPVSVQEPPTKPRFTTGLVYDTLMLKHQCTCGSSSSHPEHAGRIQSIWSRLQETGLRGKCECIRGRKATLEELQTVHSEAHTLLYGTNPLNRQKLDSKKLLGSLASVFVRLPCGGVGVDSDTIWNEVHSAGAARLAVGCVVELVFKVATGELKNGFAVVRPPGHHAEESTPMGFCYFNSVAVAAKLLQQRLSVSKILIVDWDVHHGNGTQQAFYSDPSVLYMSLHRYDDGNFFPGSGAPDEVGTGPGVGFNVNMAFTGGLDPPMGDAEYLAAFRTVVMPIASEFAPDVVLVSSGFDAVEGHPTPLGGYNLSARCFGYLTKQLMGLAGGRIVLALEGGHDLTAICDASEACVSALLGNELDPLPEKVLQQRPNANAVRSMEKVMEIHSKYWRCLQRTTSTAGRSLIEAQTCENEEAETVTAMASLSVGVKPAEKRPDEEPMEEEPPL
Procedure: as §1, §2, §3

HDAC7 = molecular target: T3, HDAC7 (Homo sapiens, UniProt Q8WUI4)
T3 construct: endogenous in cells; host or cells: cell lysate
T3 sequence (Q8WUI4 1-952): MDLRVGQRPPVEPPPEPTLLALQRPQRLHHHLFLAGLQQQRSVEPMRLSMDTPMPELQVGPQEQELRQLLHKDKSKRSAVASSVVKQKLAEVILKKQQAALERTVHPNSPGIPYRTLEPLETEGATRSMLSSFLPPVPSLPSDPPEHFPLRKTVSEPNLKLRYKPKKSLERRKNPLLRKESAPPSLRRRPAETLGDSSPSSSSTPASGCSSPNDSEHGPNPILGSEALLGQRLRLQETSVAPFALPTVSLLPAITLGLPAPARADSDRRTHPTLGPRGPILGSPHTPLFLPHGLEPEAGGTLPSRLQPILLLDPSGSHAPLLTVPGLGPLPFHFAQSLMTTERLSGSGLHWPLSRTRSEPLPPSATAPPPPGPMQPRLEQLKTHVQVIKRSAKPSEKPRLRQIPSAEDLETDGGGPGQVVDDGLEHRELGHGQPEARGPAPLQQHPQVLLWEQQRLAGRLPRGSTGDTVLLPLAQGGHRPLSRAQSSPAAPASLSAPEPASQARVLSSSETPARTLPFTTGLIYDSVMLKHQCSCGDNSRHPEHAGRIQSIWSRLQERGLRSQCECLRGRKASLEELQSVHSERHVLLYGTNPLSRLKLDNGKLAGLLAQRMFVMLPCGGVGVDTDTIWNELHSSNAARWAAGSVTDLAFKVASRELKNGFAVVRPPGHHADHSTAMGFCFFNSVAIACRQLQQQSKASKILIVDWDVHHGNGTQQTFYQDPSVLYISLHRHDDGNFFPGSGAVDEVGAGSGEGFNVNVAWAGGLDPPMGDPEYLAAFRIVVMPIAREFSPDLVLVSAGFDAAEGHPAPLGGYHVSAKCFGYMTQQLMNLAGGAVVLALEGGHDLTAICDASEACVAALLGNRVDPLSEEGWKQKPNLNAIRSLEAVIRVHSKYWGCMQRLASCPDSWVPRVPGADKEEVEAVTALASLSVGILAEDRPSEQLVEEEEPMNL
Procedure: as §1, §2, §3

For `O=C(O)CCCCC1CCSS1` (racemic) [(R/S)-LA, (R/S)-lipoic acid], the “binding to MBLAC2” value (MBLAC2; affinity matrix iC) was “No binding”, the “relative binding vs DMSO” value (MBLAC2; log10 M -3.52288) was 0.9784 and the “relative binding vs DMSO” value (MBLAC2; log10 M -4) was 1.054. The “relative binding vs DMSO” value (MBLAC2; log10 M -4.52288) was 1.366, the “relative binding vs DMSO” value (MBLAC2; log10 M -5) was 1.348 and the “relative binding vs DMSO” value (MBLAC2; log10 M -5.52288) was 1.098. The “relative binding vs DMSO” value (MBLAC2; log10 M -6) was 1.484, the “relative binding vs DMSO” value (MBLAC2; log10 M -6.52288) was 0.5203 and the “relative binding vs DMSO” value (MBLAC2; log10 M -7) was 0.9131. The “binding to class IIa HDACs” value (HDAC4; affinity matrix iC) was “No binding”, the “relative binding vs DMSO” value (HDAC4; log10 M -3.52288) was 1.609 and the “relative binding vs DMSO” value (HDAC4; log10 M -4) was 1.464. For the same molecule, the “relative binding vs DMSO” value (HDAC4; log10 M -4.52288) was 1.531, the “relative binding vs DMSO” value (HDAC4; log10 M -5) was 1.518 and the “relative binding vs DMSO” value (HDAC4; log10 M -5.52288) was 1.32. For the same molecule, the “relative binding vs DMSO” value (HDAC4; log10 M -6) was 1.575, the “relative binding vs DMSO” value (HDAC4; log10 M -6.52288) was 1.649 and the “relative binding vs DMSO” value (HDAC4; log10 M -7) was 1.276. The “relative binding vs DMSO” value (HDAC7; log10 M -3.52288) was 1.458, the “relative binding vs DMSO” value (HDAC7; log10 M -4) was 1.397 and the “relative binding vs DMSO” value (HDAC7; log10 M -4.52288) was 1.757. The “relative binding vs DMSO” value (HDAC7; log10 M -5) was 1.642, the “relative binding vs DMSO” value (HDAC7; log10 M -5.52288) was 1.564 and the “relative binding vs DMSO” value (HDAC7; log10 M -6) was 1.746. The “relative binding vs DMSO” value (HDAC7; log10 M -6.52288) was 1.164 and the “relative binding vs DMSO” value (HDAC7; log10 M -7) was 1.455.
